Experimental data published in PubChem BioAssay AID256 (DTP/NCI, 2004).
“And” between values parts separate entries of the source, which are not always exact repeats. Equal entries are not always repeated. Inconclusive results and toxic doses are left out. Rule for the calls: active = survival T/C of 150% or more; inactive = T/C below 125% in these data.

System: CD2F1 mice, L1210 leukemia ip, survival T/C
Test: NCI In Vivo Anticancer Drug Screen. Data for tumor model L1210 Leukemia (intraperitoneal) in CD2F1 (CDF1) mice
Conditions: endpoint: mean survival time, higher = longer survival
Summary of the method: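 Compound-dosed mice with transplantable tumor versus matched vehicle controls; endpoint ratio T/C reported.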

[1] = dose: 100.0 mg/kg/injection, schedule: Q01DX009 (ip), vehicle: saline with Tween-80
[2] = dose: 200.0 mg/kg/injection, schedule: Q01DX009 (ip), vehicle: saline with Tween-80
[3] = dose: 400.0 mg/kg/injection, schedule: Q01DX009 (ip), vehicle: saline with Tween-80
[4] = dose: 100.0 mg/kg/injection, schedule: Q01DX001 (ip), vehicle: saline with Tween-80
[5] = dose: 200.0 mg/kg/injection, schedule: Q01DX001 (ip), vehicle: saline with Tween-80
[6] = dose: 100.0 mg/kg/injection, schedule: Q04DX003 (ip), vehicle: saline with Tween-80
[7] = dose: 200.0 mg/kg/injection, schedule: Q04DX003 (ip), vehicle: saline with Tween-80
[8] = dose: 25.0 mg/kg/injection, schedule: Q04DX003 (ip), vehicle: saline
[9] = dose: 50.0 mg/kg/injection, schedule: Q04DX003 (ip), vehicle: saline
[10] = dose: 400.0 mg/kg/injection, schedule: Q04DX003 (ip), vehicle: saline with Tween-80

Measured: T/C

CCOC(=O)Nc1cc2c(c(N)n1)N=C(c1ccc(Cl)cc1)CN2
inactive: dose: 3.0 mg/kg/injection, schedule: Q01DX009 (ip), vehicle: Klucel (hydroxypropylcellulose) (HPC) 110 % of control | dose: 6.0 mg/kg/injection, schedule: Q01DX009 (ip), vehicle: Klucel (hydroxypropylcellulose) (HPC) 110 % of control | dose: 12.0 mg/kg/injection, schedule: Q01DX009 (ip), vehicle: Klucel (hydroxypropylcellulose) (HPC) 114 % of control | dose: 12.5 mg/kg/injection, schedule: Q01DX001 (ip), vehicle: Klucel (hydroxypropylcellulose) (HPC) 102 % of control | dose: 25.0 mg/kg/injection, schedule: Q01DX001 (ip), vehicle: Klucel (hydroxypropylcellulose) (HPC) 111 % of control | dose: 25.0 mg/kg/injection, schedule: Q01DX009 (ip), vehicle: Klucel (hydroxypropylcellulose) (HPC) 110 % of control | dose: 50.0 mg/kg/injection, schedule: Q01DX001 (ip), vehicle: Klucel (hydroxypropylcellulose) (HPC) 114 % of control | dose: 100.0 mg/kg/injection, schedule: Q01DX001 (ip), vehicle: Klucel (hydroxypropylcellulose) (HPC) 116 % of control

O=CNc1cc([N+](=O)[O-])ccc1OCc1ccccc1
inactive: dose: 100.0 mg/kg/injection, schedule: Q01DX001 (ip), vehicle: saline 100 % of control | dose: 200.0 mg/kg/injection, schedule: Q01DX001 (ip), vehicle: saline 97 % of control | dose: 400.0 mg/kg/injection, schedule: Q01DX001 (ip), vehicle: saline 96 % of control

COC(=O)C1C2C=CC(C3CCC23)C1C(=O)OC (stereo not given)
inactive: [1] 100 % of control | [2] 93 % of control | [3] 91 % of control

CC(=O)c1ccc2c3c(cccc13)CC2
inactive: [4] 94 % of control | [5] 96 % of control | dose: 400.0 mg/kg/injection, schedule: Q01DX001 (ip), vehicle: saline with Tween-80 110 % of control

C#CC(C)(O)CCCCCC (stereo not given)
inactive: [1] 113 % of control | [2] 100 % of control

CCN(CC)Cc1cn(C2CC(O)C(CO)O2)c(=O)[nH]c1=O (stereo not given)
inactive: dose: 12.5 mg/kg/injection, schedule: Q01DX005 (ip), vehicle: water 100 % of control | dose: 25.0 mg/kg/injection, schedule: Q01DX005 (ip), vehicle: water 104 % of control | dose: 50.0 mg/kg/injection, schedule: Q01DX005 (ip), vehicle: water 91 % of control | dose: 100.0 mg/kg/injection, schedule: Q01DX005 (ip), vehicle: water 100 % of control | dose: 200.0 mg/kg/injection, schedule: Q01DX005 (ip), vehicle: water 98 % of control

COc1ccc2c(c1OC(C)=O)-c1cc(OC(C)=O)cc3c1C(C2)N(C(=O)CCl)CC3 (stereo not given)
inactive: dose: 25.0 mg/kg/injection, schedule: Q04DX003 (ip), vehicle: DMSO 101 % of control | dose: 50.0 mg/kg/injection, schedule: Q04DX003 (ip), vehicle: DMSO 96 % of control | dose: 100.0 mg/kg/injection, schedule: Q04DX003 (ip), vehicle: DMSO 101 % of control

CC(C)(C)CC(C)(C)c1ccc(OCCOc2ccc(C(=O)NCCNC(=O)c3ccc4ccccc4c3O)cc2N)cc1
inactive: [2] 89 % of control | [3] 89 % of control

COC(=O)c1ccc(C)cc1C(=O)OC
inactive: [6] 97 % of control | [7] 92 % of control

CC(=O)c1ccc(Oc2ccc(/C(C)=N\N=C(N)N)cc2)cc1
inactive: [8] 100 % of control | [9] 108 % of control | dose: 75.0 mg/kg/injection, schedule: Q01DX001 (ip), vehicle: other 100 % of control | dose: 150.0 mg/kg/injection, schedule: Q01DX001 (ip), vehicle: other 112 % of control

CCc1ccc2c(c1)N(CCCN(CCCl)CCCl)c1ccccc1S2
inactive: dose: 18.0 mg/kg/injection, schedule: Q01DX001 (ip), vehicle: saline 97 % of control | dose: 28.0 mg/kg/injection, schedule: Q01DX001 (ip), vehicle: saline 108 % of control | dose: 40.0 mg/kg/injection, schedule: Q01DX001 (ip), vehicle: saline 103 % of control | dose: 60.0 mg/kg/injection, schedule: Q01DX001 (ip), vehicle: saline with Tween-80 90 % of control

Cn1c2ccccc2c2ccccc21
inactive: [6] 100 % of control | [7] 102 % of control | [10] 97 % of control

Fc1ccc(NCCS)cc1
inactive: dose: 100.0 mg/kg/injection, schedule: Q01DX009 (ip), vehicle: saline sonified 97 % of control | dose: 200.0 mg/kg/injection, schedule: Q01DX009 (ip), vehicle: saline sonified 98 % of control | dose: 400.0 mg/kg/injection, schedule: Q01DX009 (ip), vehicle: saline sonified 103 % of control

OC1C2CCC(C2)C1C(O)(C(F)(F)F)C(F)(F)F (stereo not given)
inactive: dose: 3.13 mg/kg/injection, schedule: Q01DX009 (ip), vehicle: saline 104 % of control | dose: 6.25 mg/kg/injection, schedule: Q01DX009 (ip), vehicle: saline 98 % of control | dose: 6.25 mg/kg/injection, schedule: Q04DX003 (ip), vehicle: saline with Tween-80 98 % of control | dose: 12.5 mg/kg/injection, schedule: Q01DX009 (ip), vehicle: saline 103 % of control | dose: 12.5 mg/kg/injection, schedule: Q04DX003 (ip), vehicle: saline with Tween-80 98 % of control

O=c1cn[nH]c2c(F)cccc12
inactive: dose: 100.0 mg/kg/injection, schedule: Q01DX001 (ip), vehicle: other 97 % of control | dose: 200.0 mg/kg/injection, schedule: Q01DX001 (ip), vehicle: other 104 % of control | dose: 400.0 mg/kg/injection, schedule: Q01DX001 (ip), vehicle: other 98 % of control

FC(F)(F)c1ccc2c(c1)Nc1ccccc1S2
inactive: dose: 12.5 mg/kg/injection, schedule: Q04DX003 (ip), vehicle: saline 96 % of control and 98 % of control | [8] 96 % of control and 101 % of control | [9] 101 % of control and 104 % of control | dose: 100.0 mg/kg/injection, schedule: Q04DX003 (ip), vehicle: saline 101 % of control and 104 % of control | dose: 200.0 mg/kg/injection, schedule: Q04DX003 (ip), vehicle: saline 96 % of control and 98 % of control

CCN(CC)CCN(C)N=Nc1ccccc1C(=O)NN
inactive: dose: 72.0 mg/kg/injection, schedule: Q01DX001 (ip), vehicle: saline 105 % of control | dose: 145.0 mg/kg/injection, schedule: Q01DX001 (ip), vehicle: saline 100 % of control

CN(C)C=Nc1ccc([N+](=O)[O-])cc1
inactive: [6] 101 % of control | [7] 101 % of control | [10] 92 % of control

Cc1cc(N)ccc1N(c1c(Cl)c(Cl)c(NS(=O)(=O)c2ccccc2)c(Cl)c1Cl)S(=O)(=O)c1ccccc1
inactive: dose: 100.0 mg/kg/injection, schedule: Q04DX003 (ip), vehicle: Klucel (hydroxypropylcellulose) (HPC) 95 % of control | dose: 200.0 mg/kg/injection, schedule: Q04DX003 (ip), vehicle: Klucel (hydroxypropylcellulose) (HPC) 95 % of control | dose: 400.0 mg/kg/injection, schedule: Q04DX003 (ip), vehicle: Klucel (hydroxypropylcellulose) (HPC) 95 % of control

CCCCCCCCCCCCCC[N+](C)(C)CC#CC[N+](C)(C)CCCCCCCCCCCCCC
inactive: dose: 25.0 mg/kg/injection, schedule: Q04DX002 (ip), vehicle: saline with Tween-80 104 % of control | dose: 50.0 mg/kg/injection, schedule: Q04DX002 (ip), vehicle: saline with Tween-80 89 % of control

CC(=O)Nc1ccc(SCCCc2c(N)nc(N)nc2N)cc1
inactive: [4] 100 % of control | [5] 100 % of control
